The values below come from the pKa sets of Baltruschat and Czodrowski (2020).

For the first series the following is noted: acidic group.
The molecule `C[N+](C)(C)CCc1cccc(O)c1` had a pKa of 9.43. The molecule `O=C(O)c1ccnnc1` came in with a pKa of 2.8. Same read-out and setting: the value for `O=CC(=O)O` was 1.26. Molecule `O=C(O)CCc1c[nH]c2ccccc12` came in with a pKa of 4.87. On to `Cc1cc(Nc2ccc(O)cc2)cc(C)c1O`, for which the pKa came out at 10.

`O=C(O)C12CCC(CC1)C2` displayed a pKa of 4.89.

For `O/N=C\c1ccccc1`, the pKa is 11.3. The same measure, in the same setting: the value for `Cc1ccc([Se]O)c([N+](=O)[O-])c1` was 10.7. With `Oc1cc(O)c2ccccc2[nH+]1`, the pKa amounted to 0.76. Turning to `CC(=O)[C@H]1C[C@@H](CC(=O)O)C1(C)C`, the pKa turned out to be 4.82.

In turn, `C#CC(=O)O` had a pKa of 1.89.

As to `O=C([O-])c1cc2ccccc2cc1O`, the pKa came out at 12.2. The molecule `O=[N+]([O-])c1ccc(S)c([N+](=O)[O-])c1` yielded a pKa of 3.4. `Cc1ccc(=O)c(O)c(Br)c1`: the pKa was 6.41. On the same count and under the same terms, the figure for `Cc1nn(-c2ccccc2)c(O)c1Cc1ccccc1` is 11.8; for `O=c1cc(-c2ccc(O)cc2)oc2ccccc12` it is 8.27; for `Cc1ccc(C(=O)O)c(Br)c1` it is 3.09. On the same count and under the same terms, the figure for `Oc1c2ccccc2[nH+]c2ccccc12` is 0.32; for `Nn1cnnc1S` it is 7.47; for `Cc1c(-c2ccccc2)nn(-c2ccccc2)c1O` it is 7.8. Still for that read-out and setting: the figure for `CC(C)c1cccc(=O)c(O)c1Br` is 6.68. In the case of `Nc1nc(O)cc[nH+]1`, the pKa came to 4.01. With `Cn1c([O-])nc2nc[nH]c2c1=O`, the pKa was 11.9. In the case of `COCCO`, the pKa turned out to be 14.9. Same read-out and setting: the figure for `CCc1c(-c2ccccc2)nn(-c2ccccc2)c1O` is 8. Same read-out and setting: the value for `O=C1CCC(Cl)C1=O` (stereo not given) was 7.05; that for `CN(C)/C=N/c1ccccc1O` was 11. Molecule `N#CC(C(=O)O)c1ccccc1` (stereo not given) showed a pKa of 1.77.

Take `Oc1ccccc1Br`: the pKa came to 8.4. Same read-out and setting: the figure for `O=CC1c2ccccc2-c2ccccc21` is 7.4; for `O=C(O)c1cc[n+]([O-])cc1` it is 2.86; for `Cc1cccc(/C=N/O)n1` it is 10.

`S=C(Nc1ccc(Cl)c(Cl)c1)c1cccc(Br)c1` came in with a pKa of 9.26. In turn, `O=c1ccc2ccc(O)c(O)c2o1` came in with a pKa of 6.9. `O=C(O)c1ccc(/C=C/[N+](=O)[O-])cc1`: the pKa was 3.94. Same read-out and setting: the figure for `COC(=O)c1ccccc1S` is 6.3. Same read-out and setting: the figure for `COc1cc2ccccc2cc1C(=O)O` is 3.82.

In turn, `CCc1nsc(O)n1` gave a pKa of 6.89. Turning to `[O-]c1ccccc1-c1ccccc1O`, the pKa is 14.7. For the molecule `Oc1ccc2c(c1)Cc1ccccc1-2`, the pKa came to 9.51.

`CC(C)(C)OOCC(=O)O` yielded a pKa of 3.49. For the molecule `CC1c2cc(O)ccc2CC1CC(=O)O` (stereo not given), the pKa came out at 5.3. `Brc1nnn[nH]1` registered a pKa of 2.13. The molecule `O=C(O)C1Cc2ccccc2O1` (stereo not given) returned a pKa of 3.25. Still for that read-out and setting: the figure for `O=C(O)/C=C/c1cccc([N+](=O)[O-])c1` is 4.08. Consider `Cc1cc([N+](=O)[O-])ccc1O`, for which the pKa worked out at 7.1. For the molecule `Cc1cc(C#N)cc(C)[n+]1O`, the pKa is -0.61. In turn, `CC(=O)c1cccc(NS(=O)(=O)C(F)(F)F)c1` came in with a pKa of 3.75. `CC[NH+](CC)Cc1cccc(C)c1O` displayed a pKa of 10. On the same count and under the same terms, the value for `CN(C)S(=O)(=O)c1ccc(NS(=O)(=O)c2ccc(N)cc2)cc1` was 6.23; that for `Cc1ccc(C(N)=S)cc1` was 12.8; that for `O=C(O)C(CO)c1ccccc1` (stereo not given) was 4.23.

In turn, `CCC(CC(C)C)OO` (stereo not given) yielded a pKa of 12.8. Molecule `C=C(CCCC)C(=O)O` returned a pKa of 4.8.

`O=Cc1ncccc1O` came in with a pKa of 6.95. Same read-out and setting: the value for `NNC(=O)C(F)(F)C1(F)OC(F)(F)C(F)(F)C1(F)F` (stereo not given) was 8.26. The molecule `CCOC(=S)S` returned a pKa of 1.79.

`CCOC(=S)NC(=O)c1ccccc1` registered a pKa of 7.46. Same read-out and setting: the value for `O=[N+]([O-])c1cccc2c[n+](CCCO)ccc12` was 10.4. Still for that read-out and setting: the figure for `Nc1ncnc2cn[nH]c12` is 10.2; for `CN(C)c1ccc(C(=O)O)cc1` it is 4.96; for `C[C@H]1CC[C@@H](C(=O)O)CC1` it is 5.04. Molecule `O=C1COC=C([O-])C1=O` registered a pKa of 10.5. On the same count and under the same terms, the value for `Cc1cccc(C(=O)O)c1C` was 3.73; that for `Cc1cccc(C)c1OCC(=O)O` was 3.36; that for `CCCCS(=O)O` was 2.2.

The series is the same for the next values; noted with them: basic group.
The molecule `CSc1cnc2ccccc2n1` came in with a pKa of 0.26.

Molecule `CN(C)c1nc2c(s1)CCCC2` displayed a pKa of 6.16.

With `CN(C)CCC/N=C(\c1ccccc1)c1ccc2ccccc2c1`, the pKa is 9.2.

As for `C[NH2+]CC/C(N)=N/O`, the pKa is 3.6. The molecule `NC(=O)/C=C(\O)c1ccccn1` registered a pKa of 8.23. Consider `Nc1ccc(F)cc1`, for which the pKa came to 4.64. `Cc1ccc(Cl)cc1/C(=N/CCCN(C)C)c1ccccc1` returned a pKa of 8.8.

Molecule `CN(C)c1cccc([N+](=O)[O-])c1` came in with a pKa of 2.58. In turn, `CN(C)CCC(=O)C(C)(C)C` gave a pKa of 9.49. As for `CCN(C)CCCNC(=O)/C=N/[O-]`, the pKa was found to be 9.97. Same read-out and setting: the value for `Cc1c(Cn2ccnc2)sc2cc(C(=O)[O-])ccc12` was 6.04; that for `Cc1c[n+](C)c([O-])nc1N` was 4.76; that for `NC1=N[C@H]2C[C@@H](N1)N[C@@H]2C(=O)[O-]` was 12.6. `Nc1cc2ccccc2cn1` came in with a pKa of 5.05. In turn, `c1cncc([C@@H]2CCCCN2)c1` returned a pKa of 4.01.

For the molecule `CC1=C[C@H]2CC[C@@H](O)[C@H]2N1C`, the pKa came to 11.7. `C[C@@H](CN)c1ccccc1` came in with a pKa of 9.94. In the case of `CN1C[C@H](C(=O)[O-])C=C2c3cccc4[nH]cc(c34)C[C@@H]21`, the pKa amounted to 8.49. As for `C#C[C@]1(O)C[C@@H](C)N(C)[C@H]2CCCC[C@@H]21`, the pKa was 8.99. In turn, `Cc1cnccc1N` came in with a pKa of 9.15. Same read-out and setting: the value for `CC(N)CC1CCCCC1` (stereo not given) was 10.1; that for `CN(C)/C=N/c1ccccc1O` was 7.41. Same read-out and setting: the value for `CCc1ccc(/N=N/c2ccc(N(C)C)cc2)cc1C` was 2.6; that for `CCOC(=O)N1CCN(C)CC1` was 7.31. On the same count and under the same terms, the figure for `Cc1ccccc1/C(=N\CCC[NH+](C)C)c1ccccc1N` is 3.82. For `CC(C)(C)c1ccnc(C(C)(C)C)c1`, the pKa amounted to 6.7.

`[NH3+]C(CC(=O)[O-])c1ccccn1` (stereo not given) showed a pKa of 2.94. Regarding `O=CC1c2ccccc2-c2ccccc21`, the pKa was determined as 6.2. Same read-out and setting: the figure for `CCc1ccc(C(=O)[O-])nc1` is 5.86; for `CCCc1c(C)[n-]n(C2CCN(C)CC2)c1=O` it is 9.2; for `CCOC(=O)CN` it is 7.74. In turn, `O=C1CN2CCC1CC2` had a pKa of 7.27. On the same count and under the same terms, the value for `CNC(=N)N` was 13.4; that for `COc1ccc(/N=N/c2c(N)n[nH]c2N)cc1` was 3.39.

Take `Nc1ccc(I)cc1`: the pKa came to 3.79.

In turn, `CC1CCN1` (stereo not given) yielded a pKa of 11. The same measure, in the same setting: the figure for `C[NH+]1CCC(NN)CC1` is 5.7; for `C/N=c1/sc2c(n1C)CCCC2` it is 10; for `C[C@H](CCCN)[C@H]1CC[C@H]2[C@@H]3CC[C@@H]4C[C@H](O)CC[C@]4(C)[C@H]3CC[C@]12C` it is 9.7. The same measure, in the same setting: the figure for `Cc1cnc2ccc(C)c([N+](=O)[O-])c2c1NCCC[NH+](C)C` is 6.07.

Regarding `CC/C=C/CC1=NC(C(=O)[O-])[C@@H]2SC(C)(C)C(C(=O)[O-])N12` (stereo not given in full), the pKa worked out at 7.8.

In turn, `Cc1ccc2c(c1)NCC[NH2+]2` showed a pKa of 2.03. `CCNc1nnc(-c2ccccc2)s1` yielded a pKa of 3.

Turning to `CCN(CC)CC[NH+](CC)CC`, the pKa was 6.18. Regarding `Cc1cnncc1C`, the pKa worked out at 4.13. The same measure, in the same setting: the figure for `C#CC(C)(C)NC(C)(C)C#C` is 6.45; for `Cc1ccc2nc3ccc(N)cc3nc2c1` it is 4.8.

Molecule `CC(C)C1CC(CC(=O)[O-])NC1C(=O)[O-]` (stereo not given) yielded a pKa of 10.4. Turning to `Nc1ncnc2scnc12`, the pKa came out at 2.77.

In the case of `CC(O)c1ccccc1` (stereo not given), the pKa was -7. Same read-out and setting: the value for `Nc1ccc([NH3+])cc1` was 2.86; that for `C=CCN(CC=C)CCC[NH+](CC=C)CC=C` was 6.96. Consider `CC(C)CN`, for which the pKa amounted to 10.4.

`[S-]c1ccccn1` yielded a pKa of 9.89. Molecule `Nc1ccc2nc3ccccc3nc2c1` showed a pKa of 4.52. The same measure, in the same setting: the figure for `[NH3+]c1ccc(/C=N/NC(=O)c2ccncc2)cc1` is 3.2; for `COc1cccc2cccnc12` it is 4.88. Consider `CN(C)c1ncnc2c1cnn2C`, for which the pKa is 4.06. The same measure, in the same setting: the figure for `N#Cc1ccncc1` is 1.91. For `O=Cc1ncccc1O`, the pKa amounted to 3.4. `Cc1ccc2nc3c(c(N4CCOCC4)c2c1)CCC3`: the pKa is 7.18. On the same count and under the same terms, the figure for `CC(=O)OCCc1c[nH]cn1` is 6.97; for `CN1C(=N)C(C)(C)c2ccccc21` it is 9.25. The same measure, in the same setting: the value for `Nc1cccc2cccc([N+](=O)[O-])c12` was 2.79; that for `Nc1ncnc2cn[nH]c12` was 5. For `CN(C)c1ccc(C(=O)O)cc1`, the pKa worked out at 2.57.

On to `CC(O)CN(CCN1CCOCC1)CC(C)O` (stereo not given), for which the pKa was 7.9. Molecule `CCCCCCCCCCN(CC(C)O)CC(C)O` (stereo not given) had a pKa of 7.6. Still for that read-out and setting: the value for `C=Cc1c(C)c2cc3[nH+]c(c(CC(=O)OC)c4[nH]c(cc5nc(cc1[nH]2)C(C)=C5CC)c(C)c4C(=O)NCC)[C@@H](CCC(=O)OC)[C@@H]3C` was 0.

As to `COc1cnc2ccccc2n1`, the pKa came to 0.28.

Turning to `CC(C)CNCC(=O)[O-]`, the pKa came out at 10.1. The same measure, in the same setting: the value for `C=CC(=O)NC(C)(C)CCN(C)C` was 9.39; that for `CCCCCCCCCCCCCCN(CCO)CC(O)CC` (stereo not given) was 6.1; that for `C/C(=N\c1ccccc1)Nc1ccccc1` was 8.3. `Nc1nccs1` came in with a pKa of 5.44. Same read-out and setting: the figure for `CCCCCCCCCCN(CCO)CC(C)O` (stereo not given) is 7.5; for `C=Cc1ccc(C)nc1` it is 5.67; for `N=C(N)Nc1nccc(-c2csc(N)n2)n1` it is 9.2. On the same count and under the same terms, the value for `CC(C)(C)SC(=N)c1ccccc1` was 9.24.
